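Values below derive from 48-hour exposures of cells grown in 96-well plates, with endpoints linearly interpolated between the two concentrations bracketing the appropriate inhibition level. At the GI50, growth is halved.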 Active and inactive are the calls of the source. No stated cut-off is given here; in the data, active = GI50 up to about 1.1 µM and inactive = higher.
Assays:
Experiment in all cases: growth of human tumour cells (NCI), 48 h
[1] = test system: UACC-257
[2] = test system: DU-145
[3] = test system: HCT-15
[4] = test system: NCI/ADR-RES
[5] = test system: OVCAR-4
[6] = test system: SK-MEL-2
[7] = test system: Hs-578T
[8] = test system: OVCAR-3
[9] = test system: LOX IMVI
[10] = test system: K562
[11] = test system: M14
[12] = test system: Malme-3M
[13] = test system: BT-549
[14] = test system: NCI-H23
[15] = test system: NCI-H460
[16] = test system: UO-31
[17] = test system: PC-3
[18] = test system: IGROV-1
[19] = test system: HCC 2998
[20] = test system: CCRF-CEM
[21] = test system: HCT-116
[22] = test system: RXF 393
[23] = test system: EKVX
[24] = test system: SNB-19
[25] = test system: SR
[26] = test system: KM12
[27] = test system: HOP-62
[28] = test system: MCF7
[29] = test system: MDA-MB-231
[30] = test system: HL-60
[31] = test system: OVCAR-8
[32] = test system: U-251
[33] = test system: HOP-92
[34] = test system: ACHN
[35] = test system: 786-0
[36] = test system: SK-OV-3
[37] = test system: A498
[38] = test system: SW-620
[39] = test system: SF-295
[40] = test system: COLO 205
[41] = test system: OVCAR-5
[42] = test system: HT-29
[43] = test system: SF-268
[44] = test system: SF-539
[45] = test system: T47D
[46] = test system: NCI-H226
[47] = test system: A549
[48] = test system: MDA-MB-435
[49] = test system: CAKI-1
[50] = test system: SK-MEL-5
[51] = test system: SN12C
[52] = test system: TK-10
[53] = test system: MOLT-4
[54] = test system: MDA-N
[55] = test system: SK-MEL-28
[56] = test system: NCI-H522
[57] = test system: UACC-62
[58] = test system: SNB-75
[59] = test system: RPMI-8226

Q: Which GI50 [1] does the source give for `Nc1cc(N)cc(Cc2ccccc2)c1` here?
A: The GI50 was > 100 µM (inactive).

Q: What about the GI50 [2] of the same compound?
A: The GI50 was > 100 µM (inactive).

Q: And the GI50 [3]?
A: The GI50 was > 100 µM.

Q: What about the GI50 [4] of the same compound?
A: Its GI50 is > 100 µM (inactive).

Q: What about the GI50 [5] of the same compound?
A: The GI50 was > 100 µM (inactive).

Q: What about the GI50 [6] of the same compound?
A: The GI50 was > 100 µM (inactive).

Q: And the GI50 [7]?
A: Its GI50 is > 100 µM (inactive).

Q: And the GI50 [8]?
A: The GI50 was > 100 µM (inactive).

Q: What about the GI50 [9] of the same compound?
A: The GI50 was > 100 µM (inactive).

Q: And the GI50 [10]?
A: Its GI50 is > 100 µM (inactive).

Q: What about the GI50 [11] of the same compound?
A: The GI50 was > 100 µM (inactive).

Q: And the GI50 [12]?
A: Its GI50 is > 100 µM (inactive).

Q: And the GI50 [13]?
A: The GI50 was > 100 µM (inactive).

Q: What about the GI50 [14] of the same compound?
A: Its GI50 is > 100 µM (inactive).

Q: What about the GI50 [15] of the same compound?
A: The GI50 was > 100 µM (inactive).

Q: What about the GI50 [16] of the same compound?
A: Its GI50 is > 100 µM (inactive).

Q: And the GI50 [17]?
A: Its GI50 is > 100 µM (inactive).

Q: And the GI50 [18]?
A: The GI50 was > 100 µM (inactive).

Q: What about the GI50 [19] of the same compound?
A: Its GI50 is > 100 µM (inactive).

Q: What about the GI50 [20] of the same compound?
A: Its GI50 is > 100 µM (inactive).

Q: And the GI50 [21]?
A: Its GI50 is > 100 µM (inactive).

Q: What about the GI50 [22] of the same compound?
A: The GI50 was > 100 µM (inactive).

Q: What about the GI50 [23] of the same compound?
A: Its GI50 is > 100 µM (inactive).

Q: What about the GI50 [24] of the same compound?
A: The GI50 was > 100 µM (inactive).

Q: And the GI50 [25]?
A: Its GI50 is > 100 µM (inactive).

Q: And the GI50 [26]?
A: The GI50 was > 100 µM (inactive).

Q: What about the GI50 [27] of the same compound?
A: The GI50 was > 100 µM (inactive).

Q: What about the GI50 [28] of the same compound?
A: Its GI50 is > 100 µM (inactive).

Q: And the GI50 [29]?
A: Its GI50 is > 100 µM (inactive).

Q: What about the GI50 [30] of the same compound?
A: Its GI50 is > 100 µM (inactive).

Q: And the GI50 [31]?
A: Its GI50 is > 100 µM (inactive).

Q: What about the GI50 [32] of the same compound?
A: Its GI50 is > 100 µM (inactive).

Q: What about the GI50 [33] of the same compound?
A: The GI50 was > 100 µM (inactive).

Q: And the GI50 [34]?
A: The GI50 was > 100 µM (inactive).

Q: And the GI50 [35]?
A: The GI50 was > 100 µM (inactive).

Q: And the GI50 [36]?
A: The GI50 was > 100 µM (inactive).

Q: And the GI50 [37]?
A: The GI50 was > 100 µM (inactive).

Q: And the GI50 [38]?
A: Its GI50 is > 100 µM (inactive).

Q: And the GI50 [39]?
A: Its GI50 is > 100 µM (inactive).

Q: What about the GI50 [40] of the same compound?
A: Its GI50 is > 100 µM (inactive).

Q: And the GI50 [41]?
A: Its GI50 is > 100 µM (inactive).

Q: What about the GI50 [42] of the same compound?
A: The GI50 was > 100 µM (inactive).

Q: What about the GI50 [43] of the same compound?
A: The GI50 was > 100 µM (inactive).

Q: What about the GI50 [44] of the same compound?
A: The GI50 was > 100 µM (inactive).

Q: What about the GI50 [45] of the same compound?
A: Its GI50 is > 100 µM (inactive).

Q: What about the GI50 [46] of the same compound?
A: The GI50 was > 100 µM (inactive).

Q: And the GI50 [47]?
A: The GI50 was > 100 µM (inactive).

Q: And the GI50 [48]?
A: Its GI50 is > 100 µM (inactive).

Q: And the GI50 [49]?
A: The GI50 was > 100 µM (inactive).

Q: What about the GI50 [50] of the same compound?
A: The GI50 was > 100 µM (inactive).

Q: What about the GI50 [51] of the same compound?
A: The GI50 was > 100 µM (inactive).

Q: And the GI50 [52]?
A: The GI50 was > 100 µM (inactive).

Q: And the GI50 [53]?
A: Its GI50 is > 100 µM (inactive).

Q: And the GI50 [54]?
A: Its GI50 is > 100 µM (inactive).

Q: What about the GI50 [55] of the same compound?
A: The GI50 was > 100 µM (inactive).

Q: And the GI50 [56]?
A: The GI50 was > 100 µM (inactive).

Q: For `CC(=O)N1C(C(=O)NNc2ccccc2)CSC1c1ccccc1` (configuration not stated), which GI50 [1] is on record?
A: The GI50 was > 100 µM (inactive).

Q: What about the GI50 [2] of the same compound?
A: Its GI50 is > 100 µM (inactive).

Q: And the GI50 [57]?
A: Its GI50 is 1.39 µM (inactive).

Q: What about the GI50 [3] of the same compound?
A: Its GI50 is 1.56 µM.

Q: What about the GI50 [4] of the same compound?
A: The GI50 was > 100 µM (inactive).

Q: And the GI50 [5]?
A: The GI50 was > 100 µM (inactive).

Q: What about the GI50 [6] of the same compound?
A: The GI50 was > 100 µM (inactive).

Q: What about the GI50 [7] of the same compound?
A: The GI50 was > 100 µM (inactive).

Q: And the GI50 [8]?
A: The GI50 was 58.2 µM (inactive).

Q: And the GI50 [9]?
A: Its GI50 is 3.16 µM (inactive).

Q: What about the GI50 [10] of the same compound?
A: Its GI50 is 3.42 µM (inactive).

Q: What about the GI50 [11] of the same compound?
A: Its GI50 is 16.7 µM (inactive).

Q: And the GI50 [12]?
A: The GI50 was > 100 µM (inactive).

Q: And the GI50 [13]?
A: Its GI50 is > 100 µM (inactive).

Q: What about the GI50 [14] of the same compound?
A: The GI50 was > 100 µM (inactive).

Q: What about the GI50 [58] of the same compound?
A: The GI50 was > 100 µM (inactive).

Q: What about the GI50 [15] of the same compound?
A: The GI50 was > 100 µM (inactive).

Q: What about the GI50 [16] of the same compound?
A: Its GI50 is 70.8 µM (inactive).

Q: And the GI50 [17]?
A: Its GI50 is 5.3 µM (inactive).

Q: And the GI50 [18]?
A: Its GI50 is 36.6 µM (inactive).

Q: And the GI50 [19]?
A: Its GI50 is 23 µM (inactive).

Q: What about the GI50 [20] of the same compound?
A: Its GI50 is 77.3 µM (inactive).

Q: And the GI50 [21]?
A: Its GI50 is > 100 µM (inactive).

Q: What about the GI50 [23] of the same compound?
A: The GI50 was > 100 µM (inactive).

Q: What about the GI50 [24] of the same compound?
A: Its GI50 is > 100 µM (inactive).

Q: What about the GI50 [25] of the same compound?
A: Its GI50 is > 100 µM (inactive).

Q: And the GI50 [26]?
A: Its GI50 is 71.3 µM (inactive).

Q: What about the GI50 [27] of the same compound?
A: The GI50 was > 100 µM (inactive).

Q: What about the GI50 [28] of the same compound?
A: Its GI50 is > 100 µM (inactive).

Q: What about the GI50 [29] of the same compound?
A: Its GI50 is > 100 µM (inactive).

Q: And the GI50 [31]?
A: The GI50 was > 100 µM (inactive).

Q: What about the GI50 [32] of the same compound?
A: Its GI50 is > 100 µM (inactive).

Q: What about the GI50 [33] of the same compound?
A: The GI50 was > 100 µM (inactive).

Q: And the GI50 [34]?
A: Its GI50 is 4.47 µM (inactive).

Q: What about the GI50 [35] of the same compound?
A: Its GI50 is > 100 µM (inactive).

Q: What about the GI50 [36] of the same compound?
A: The GI50 was > 100 µM (inactive).

Q: And the GI50 [37]?
A: Its GI50 is > 100 µM (inactive).

Q: What about the GI50 [38] of the same compound?
A: Its GI50 is > 100 µM (inactive).

Q: And the GI50 [39]?
A: The GI50 was > 100 µM (inactive).

Q: What about the GI50 [40] of the same compound?
A: Its GI50 is 64.9 µM (inactive).

Q: And the GI50 [41]?
A: Its GI50 is > 100 µM (inactive).

Q: What about the GI50 [42] of the same compound?
A: Its GI50 is > 100 µM (inactive).

Q: And the GI50 [43]?
A: The GI50 was > 100 µM (inactive).

Q: And the GI50 [44]?
A: Its GI50 is 62.8 µM (inactive).

Q: And the GI50 [45]?
A: The GI50 was 69.7 µM (inactive).

Q: And the GI50 [46]?
A: The GI50 was > 100 µM (inactive).

Q: And the GI50 [47]?
A: The GI50 was 71 µM (inactive).

Q: And the GI50 [48]?
A: Its GI50 is 16.7 µM (inactive).

Q: What about the GI50 [49] of the same compound?
A: The GI50 was > 100 µM (inactive).

Q: What about the GI50 [50] of the same compound?
A: The GI50 was > 100 µM (inactive).

Q: And the GI50 [59]?
A: The GI50 was 37.8 µM (inactive).

Q: What about the GI50 [51] of the same compound?
A: The GI50 was > 100 µM (inactive).

Q: What about the GI50 [52] of the same compound?
A: The GI50 was > 100 µM (inactive).

Q: And the GI50 [53]?
A: The GI50 was 4 µM (inactive).

Q: What about the GI50 [54] of the same compound?
A: Its GI50 is > 100 µM (inactive).

Q: And the GI50 [56]?
A: The GI50 was 0.471 µM (active).
